We go through three molecules from article PMC7508162 (Frontiers in Pharmacology, 2020).

Molecules are shown by their SMILES.

The nature of data set [1]: Metabolic stability in mouse liver microsomes. The conditions noted are these: both sexes; mouse liver microsomes 0.5 mg/mL; compound 1 μM. It counts as in vitro ADME. As for the experimental part: The experiments were performed by Pharmacelsus, Saarbrücken, Germany (https://www.pharmacelsus.com/services/in-vitro-adme/) using human and mouse liver microsomes (0.5 mg/mL, mixed gender, pooled). Compounds were tested at a concentration of 1 μM. Data points represent means of two separate experiments performed in duplicates.
(In general: Liver microsomes are vesicles of endoplasmic reticulum, rich in cytochrome P450 enzymes.)

The nature of data set [2]: Chemical stability of stock solutions by LC/ESI-MS analysis. Format: physicochemical. As to the method: To ensure that degradation was caused by microsomal enzymes and not due to chemical instability, stock solutions were analyzed by LC/ESI-MS analysis, and were in all cases found to be stable. […] Nevertheless, they represent useful tool compounds for in vitro studies.

Data set [3] concerns P2 receptors. On the set-up: method as in Robson et al., 2006. The note with it: ref Robson et al., 2006; cited from earlier work.
Data set [4] concerns the target T1, NTPDase3 (Homo sapiens, UniProt O75355).
T1 sequence (O75355 1-529): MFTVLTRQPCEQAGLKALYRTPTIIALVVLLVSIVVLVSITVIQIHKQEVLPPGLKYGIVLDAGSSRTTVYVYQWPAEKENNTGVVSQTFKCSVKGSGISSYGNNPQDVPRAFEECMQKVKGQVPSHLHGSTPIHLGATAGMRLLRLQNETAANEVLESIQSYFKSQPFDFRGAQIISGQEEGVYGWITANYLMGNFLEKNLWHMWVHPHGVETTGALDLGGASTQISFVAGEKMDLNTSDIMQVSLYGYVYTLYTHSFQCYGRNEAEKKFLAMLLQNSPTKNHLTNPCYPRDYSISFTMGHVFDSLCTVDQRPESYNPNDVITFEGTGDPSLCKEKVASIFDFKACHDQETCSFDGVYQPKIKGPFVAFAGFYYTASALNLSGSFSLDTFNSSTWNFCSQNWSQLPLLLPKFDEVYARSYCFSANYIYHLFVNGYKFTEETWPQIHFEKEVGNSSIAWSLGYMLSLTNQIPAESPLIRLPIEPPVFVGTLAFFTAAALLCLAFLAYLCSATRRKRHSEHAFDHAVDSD
The experiment in a line: Malachite green assay for NTPDase3. Format: biochemical. More on the design: expressed in transfected cells; host or cells: COS-7 cell membrane preparations. The conditions noted are these: ATP 50 µM, recombinant COS-7 cell membrane preparation, read-out: Ki ± SEM. As to the method:
The enzymatic activity assay was determined essentially as previously described ([Cogan et al., 1999]) with a few adaptations. The reaction buffer contained 10 mM HEPES, 2 mM CaCl2, 1 mM MgCl2, pH 7.4 in a final volume of 50 μl in transparent 96-well half area plates. For CD39 (NTPDase1), we made use of human umbilical cord membranes preparations which express high levels of the enzyme. For the other human NTPDase isoenzymes, we had to resort to recombinant expression. Human umbilical cord membrane preparations (250 ng) natively expressing high amounts of CD39, or the respective recombinant COS-7 cell membrane preparations expressing the appropriate NTPDase isoenzyme (ca. 100 ng of protein depending on enzyme activity) ([Sévigny et al., 1997]; [Lecka et al., 2013]) with or without inhibitor were preincubated at 37°C and gentle shaking (Eppendorf Thermomixer comfort at 500 rpm) for 5 min. The amount of enzyme preparation was adjusted to ensure 10–20% of substrate conversion. […] ([Kukulski et al., 2005]). After 15 min of incubation at 37°C with gentle shaking, the reaction was stopped by adding the detection reagents (20 µl malachite green solution, 0.6 mM, and 30 µl ammonium molybdate solution, 20 mM, in sulfuric acid, 1.5 M). The released (inorganic) phosphate was quantified after 20 min of gentle shaking at 25°C by measuring the absorption of the malachite green-phosphomolybdate complex at 600 nm using a BMG PheraStar FS plate reader (BMG Labtech GmbH, Ortenberg, Germany). The corrected absorption was calculated by subtracting the absorption of the negative control samples, which were incubated with denatured enzyme (90°C, 15 min), and the inhibition was calculated as follows:
% Inhibition=(B−T)/B*100% […]
(§1) Full concentration-inhibition curves were determined with inhibitor concentrations ranging from 0.1 to 300 µM in the presence of 2% DMSO. Three independent experiments were performed (n = 3) and curves were calculated by the GraphPad Prism 8 software. The Ki value was calculated using the Cheng-Prusoff equation for competitive inhibitors: […]

For data set [5], the target named is T2, human CD39 (Homo sapiens, UniProt P49961).
T2 sequence (P49961 1-510): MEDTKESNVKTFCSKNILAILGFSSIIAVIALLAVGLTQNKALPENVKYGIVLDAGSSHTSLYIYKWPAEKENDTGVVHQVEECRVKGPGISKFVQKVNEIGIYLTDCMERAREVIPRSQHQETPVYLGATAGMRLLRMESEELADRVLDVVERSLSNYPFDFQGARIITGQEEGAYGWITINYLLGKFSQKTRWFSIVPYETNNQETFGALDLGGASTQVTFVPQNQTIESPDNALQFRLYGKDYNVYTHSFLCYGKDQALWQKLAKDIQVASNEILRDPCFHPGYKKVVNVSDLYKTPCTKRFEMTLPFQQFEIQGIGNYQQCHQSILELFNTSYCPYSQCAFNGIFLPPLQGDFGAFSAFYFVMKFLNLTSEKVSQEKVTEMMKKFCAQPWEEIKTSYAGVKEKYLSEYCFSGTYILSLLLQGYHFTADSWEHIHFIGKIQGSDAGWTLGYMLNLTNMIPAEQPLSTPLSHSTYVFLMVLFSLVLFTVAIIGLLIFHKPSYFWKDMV
In words: Malachite green assay for CD39 (natural substrate ATP). The note with it: natural substrate ATP 50 µM, n = 3, read-out: Ki ± SEM (converted). It counts as biochemical. On the set-up: Human umbilical cord membrane preparations (250 ng) natively expressing high amounts of CD39; from tissue; host or cells: human umbilical cord membranes. As for the experimental part:
They were minced and homogenized with a polytron in 95 mM NaCl, 0.1 mM phenylmethylsulfonyl fluoride (PMSF), and 45 mM Tris solution, pH 7.6. […] The pellets were resuspended in 5 mM Tris buffer solution, pH 8.0 and 10% glycerol. All purification steps were performed at 4°C. The preparations were kept at −80°C.
The reaction buffer contained 10 mM HEPES, 2 mM CaCl2, 1 mM MgCl2, pH 7.4 in a final volume of 50 μl in transparent 96-well half area plates. For CD39 (NTPDase1), we made use of human umbilical cord membranes preparations which express high levels of the enzyme. For the other human NTPDase isoenzymes, we had to resort to recombinant expression. […] The amount of enzyme preparation was adjusted to ensure 10–20% of substrate conversion. […] The released (inorganic) phosphate was quantified after 20 min of gentle shaking at 25°C by measuring the absorption of the malachite green-phosphomolybdate complex at 600 nm using a BMG PheraStar FS plate reader (BMG Labtech GmbH, Ortenberg, Germany).
% Inhibition=(B−T)/B*100%
where B is the average corrected absorption of the positive control without inhibitor and T the corrected absorption in the presence of test compound.
as §1

What is called half-life is the time in which the quantity being followed falls by half. Read a high half-life as slow loss. A word on the Ki: it is a dissociation constant, usually derived from enzyme kinetics or from competition with a known ligand.

The molecule `CCN(CC)c1ncnc2c1ncn2[C@@H]1O[C@H](COP(=O)(O)OP(=O)(O)C(Br)(Br)P(=O)(O)O)[C@@H](O)[C@H]1O` [ARL67156, (Dibromo((((((2R,3S,4R,5R)-5-(6-(diethylamino)-9H-purin-9-yl)-3,4-dihydroxytetrahydrofuran-2-yl)methoxy)-(hydroxy)-phosphoryl)oxy)(hydroxy)phosphoryl)methyl)-phosphonic Acid, reference compound] gave a half-life at 1 μM in data set [1] of less than 1 min. In addition, the “stability of stock solutions” value in data set [2] was “stable”. In addition, the “effect on P2 receptors” value in data set [3] is listed as “no significant effect”. The Ki in data set [4] was 7.94 ± 1.36 µM.

For `CCCCSc1nc2c(N)ncnc2n1[C@@H]1O[C@H](COP(=O)(O)OP(=O)(O)C(Br)(Br)P(=O)(O)O)[C@@H](O)[C@H]1O` [Compound 31, (((((((2R,3S,4R,5R)-5-(6-Amino-8-(butylthio)-9H-purin-9-yl)-3,4-dihydroxytetrahydrofuran-2-yl)methoxy)(hydroxy)-phosphoryl)oxy)(hydroxy)phosphoryl)dibromomethyl)-phosphonic Acid], the half-life at 1 μM in data set [1] was less than 1 min. Moreover, in data set [2], the “stability of stock solutions” value is given as “stable”. For the same molecule, in data set [4], the inhibitory constant (Ki) is 1.54 ± 0.34 µM.

The molecule `CCCCNc1nc2c(NC)ncnc2n1[C@@H]1O[C@H](COP(=O)(O)OP(=O)(O)C(Br)(Br)P(=O)(O)O)[C@@H](O)[C@H]1O` [Compound 33, (Dibromo((((((2R,3S,4R,5R)-5-(8-(butylamino)-6-(methylamino)-9H-purin-9-yl)-3,4-dihydroxy-tetrahydrofuran-2-yl)methoxy)(hydroxy)phosphoryl)oxy)-(hydroxy)phosphoryl)methyl)-phosphonic Acid] showed a half-life at 1 μM in data set [1] of less than 1 min. Also, the “stability of stock solutions” value in data set [2] is recorded as “stable”. Also, the values for the inhibition constant (Ki) in data set [4] and in data set [5] were 7.8 ± 1.34 µM and 3.35 µM, respectively.
